Results as given in paper PMC11091526 (International Journal for Parasitology: Drugs and Drug …, 2024).

How the values were obtained:
[1] = test system: N. fowleri (ATCC® 30,808™) trophozoites; type: cell-based, Naegleria fowleri; conditions: trophozoites treated with IC90 for 24 h
[2] = test system: N. fowleri ATCC® 30,215™ trophozoites; assay: In vitro activity against trophozoites, alamarBlue, 48 h; type: cell-based; conditions: Naegleria fowleri, ATCC30, 48 h, read-out: N. fowleri ATCC 30,215 IC50
[3] = test system: N. fowleri (ATCC® 30,808™) trophozoites; assay: Plasma membrane permeability, SYTOX Green; type: cell-based, Naegleria fowleri; conditions: IC90, 24 h
[4] = test system: N. fowleri (ATCC® 30,808™) trophozoites; assay: Mitochondrial membrane potential depolarization, JC-1; type: cell-based, Naegleria fowleri; conditions: IC90, 24 h
[5] = test system: N. fowleri ATCC® 30,808™ trophozoites; assay: In vitro activity against trophozoites, alamarBlue, 48 h; type: cell-based, Naegleria fowleri; conditions: for S.I. ATCC 30,808 (selectivity index CC50/IC50): CC50 J774A.1 / IC50 ATCC 30,808 trophozoites; for IC50 / IC90: Naegleria fowleri; for IC50: ATCC30, 48 h, read-out: N. fowleri ATCC 30,808 IC50, trophozoite stage; for IC90: ATCC30, read-out: N. fowleri ATCC 30,808 IC90
[6] = test system: N. fowleri (ATCC® 30,808™) trophozoites; assay: Chromatin condensation, Hoechst 33,342/Propidium Iodide double staining; type: cell-based, Naegleria fowleri; conditions: IC90, 24 h
[7] = test system: N. fowleri ATCC® 30,808™ cysts; assay: microbe, parasite or virus in culture; type: cell-based; conditions: Naegleria fowleri, ATCC30, read-out: N. fowleri ATCC 30,808 IC50, cyst stage

## C[C@@H]1[C@H](O)[C@@H](C)/C=C/C=C/C=C/C=C/C=C/C=C/C=C/[C@H](O[C@@H]2O[C@H](C)[C@@H](O)[C@H](N)[C@@H]2O)C[C@@H]2O[C@](O)(C[C@@H](O)C[C@@H](O)[C@H](O)CC[C@@H](O)C[C@@H](O)CC(=O)O[C@H]1C)C[C@H](O)[C@H]2C(=O)O [AMPHOTERICIN B, amphotericin B]
[1]
  Inhibition of ATP synthesis in comparison to the negative control: > 98%
[2]
  IC50: 0.16 ± 0.02 µM
[3]
  Plasma membrane permeability (SYTOX Green fluorescence): emitted green fluorescence
[4]
  Mitochondrial membrane potential (JC-1 fluorescence): green fluorescence emission was also shown
[5]
  S.I. ATCC 30,808 (selectivity index CC50/IC50): ≥1650
  IC50: 0.12 ± 0.03 µM
  IC90: 0.35 ± 0.02 µM
[6]
  Chromatin condensation (Hoechst 33,342 blue fluorescence): emission of blue fluorescence was observed
[7]
  IC50: 0.53 ± 0.03 µM

## CCCCCCCCCCCCCCCCOP(=O)([O-])OCC[N+](C)(C)C [MILTEFOSINE, miltefosine]
[5]
  S.I. ATCC 30,808 (selectivity index CC50/IC50): 3.3
[7]
  IC50: 21.5 ± 2.62 µM

## CCCN1CCC=C(c2cc(-c3ccc(C)cc3)no2)C1 [PD-144418]
[2]
  IC50: 6.48 ± 2.83 µM
[5]
  S.I. ATCC 30,808 (selectivity index CC50/IC50): 10.35
  IC50: 4.71 ± 0.95 µM
  IC90: 17.4 ± 3.28 µM
[7]
  IC50: 10.4 ± 2.3 µM

## CC(C)N1CCN(c2ccc(OCC3COC(Cn4cncn4)(c4ccc(Cl)cc4Cl)O3)cc2)CC1 (stereo not drawn) [TERCONAZOLE, terconazole]
[2]
  IC50: 0.81 ± 0.49 µM
[5]
  S.I. ATCC 30,808 (selectivity index CC50/IC50): 22.99
  IC50: 3.68 ± 0.61 µM
  IC90: 30.9 ± 2.38 µM
[7]
  IC50: 2.46 ± 0.28 µM
